Measured values as given in ChEMBL document CHEMBL1140743, “2-Oxotetrahydroquinoline-based antimalarials with high potency and metabolic stability” (J Med Chem, 2008).

Assays:
[1] = (§1) Metabolic stability assessed as half life in mouse liver microsomes; type: ADME, Microsome; settings: liver microsomes
Plasmodium falciparum [2] = assay: Displacement of [3H]farnesylpyrophosphate from Plasmodium falciparum protein farnesyltransferase at 50 nM by scintillation proximity assay
Plasmodium falciparum [3] = assay: Displacement of [3H]farnesylpyrophosphate from Plasmodium falciparum protein farnesyltransferase at 5 nM by scintillation proximity assay
Plasmodium falciparum [4] = assay: Displacement of [3H]farnesylpyrophosphate from Plasmodium falciparum protein farnesyltransferase at 0.5 nM by scintillation proximity assay
Plasmodium falciparum [5] = assay: Antimalarial activity against chloroquine-sensitive Plasmodium falciparum 3D7 in human red cells; type: functional; settings: read-out: ED50 (the source's name)
Rattus norvegicus [6] = species on record: Rattus norvegicus; assay: Inhibition of rat protein farnesyltransferase at 5000 nM
Rattus norvegicus [7] = species on record: Rattus norvegicus; assay: Inhibition of rat protein farnesyltransferase at 500 nM
Rattus norvegicus [8] = species on record: Rattus norvegicus; assay: Inhibition of rat protein farnesyltransferase at 50 nM
Rattus norvegicus [9] = species on record: Rattus norvegicus; assay: Inhibition of rat protein farnesyltransferase at 5 nM
Plasmodium falciparum [10] = assay: Antimalarial activity against chloroquine-resistant, pyrimethamine-resistant Plasmodium falciparum K1 in human red cells; type: functional; settings: read-out: ED50 (the source's name)
[11] = Inhibition of Plasmodium falciparum PFT
Plasmodium falciparum [12] = assay: Antimalarial activity against Plasmodium falciparum in human red cells; type: functional; settings: read-out: ED50 (the source's name)
Liver = assay: as §1; type: ADME, Microsome; settings: microsomes

half-life [1] [min]	t1/2 (Liver) [min]	Structure (SMILES)	inhibition (Plasmodium falciparum [2]) [%]	inhibition (Plasmodium falciparum [3]) [%]	inhibition (Plasmodium falciparum [4]) [%]	EC50 (Plasmodium falciparum [5]) [nM]	inhibition (Rattus norvegicus [6]) [%]	inhibition (Rattus norvegicus [7]) [%]	inhibition (Rattus norvegicus [8]) [%]	inhibition (Rattus norvegicus [9]) [%]	EC50 (Plasmodium falciparum [10]) [nM]	IC50 [11] [nM]	EC50 (Plasmodium falciparum [12]) [nM]
10		Cn1cnc(S(=O)(=O)N(CC(=O)OC(C)(C)C)C2Cc3cc(C#N)ccc3N(Cc3cncn3C)C2)c1 (configuration not stated)											
133		Cn1cnc(S(=O)(=O)N(Cc2ccc(S(C)(=O)=O)cc2)C2Cc3cc(C#N)ccc3N(Cc3cncn3C)C2=O)c1 (configuration not stated)	99	91	23	80	73	23	0	0			
		Cc1ccccc1CN(C1Cc2cc(C#N)ccc2N(Cc2cncn2C)C1=O)S(=O)(=O)c1cn(C)cn1 (configuration not stated)	45	12	9	5000					5000		
		COC(=O)N1CCC(CN(C2Cc3cc(C#N)ccc3N(Cc3cncn3C)C2)S(=O)(=O)c2ccccn2)CC1 (configuration not stated)										0.5	15
		Cn1cnc(S(=O)(=O)N(Cc2ccccc2F)C2Cc3cc(C#N)ccc3N(Cc3cncn3C)C2=O)c1 (configuration not stated)	97	71	33	800							
		C=C(C)CN(C1Cc2cc(C#N)ccc2N(Cc2cncn2C)C1=O)S(=O)(=O)c1cn(C)cn1 (configuration not stated)	86	41	4	3200					2000		
3		Cn1cnc(S(=O)(=O)N(Cc2ccc(C#N)cc2)C2Cc3cc(C#N)ccc3N(Cc3cncn3C)C2)c1 (configuration not stated)											
		Cn1cnc(S(=O)(=O)NC2Cc3cc(C#N)ccc3N(Cc3cncn3C)C2=O)c1 (configuration not stated)	79	41	0								
		Cn1cncc1CN1C(=O)C(N(CC(=O)NC(C)(C)C)S(=O)(=O)c2ccc3c(c2)OCCCO3)Cc2cc(C#N)ccc21 (configuration not stated)	22	4	0	5000							
31		Cn1cncc1CN1C(=O)C(N(CC(=O)NC(C)(C)C)S(=O)(=O)c2cccc(F)c2)Cc2cc(C#N)ccc21 (configuration not stated)	56	19	0	3600							
		Cn1cncc1CN1C(=O)C(N(Cc2ccc(S(C)(=O)=O)cc2)S(=O)(=O)c2ccccn2)Cc2cc(C#N)ccc21 (configuration not stated)	91	60	15	1700					275		
		Cc1c(S(=O)(=O)N(CC(=O)NC(C)(C)C)C2Cc3cc(C#N)ccc3N(Cc3cncn3C)C2=O)ncn1C (configuration not stated)	24	11	6	5000					5000		
		Cn1cnc(S(=O)(=O)N(C(CC(=O)OC(C)(C)C)C(=O)OC(C)(C)C)C2Cc3cc(C#N)ccc3N(Cc3cncn3C)C2=O)c1 (configuration not stated)	0	0	0	5000					5000		
17		Cn1cnc(S(=O)(=O)N(CC(=O)NC(C)(C)C)C2Cc3cc(C#N)ccc3N(Cc3cncn3C)C2)c1 (configuration not stated)											
	16	Cn1cnc(S(=O)(=O)N(Cc2ccc(S(C)(=O)=O)cc2)C2Cc3cc(C#N)ccc3N(Cc3cncn3C)C2)c1 (configuration not stated)											
		Cn1cncc1CN1C(=O)C(NS(=O)(=O)c2ccccn2)Cc2cc(Br)ccc21 (configuration not stated)	36	15	0	5000					5000		
		COC(=O)C1CCC(CN(C2Cc3cc(C#N)ccc3N(Cc3cncn3C)C2=O)S(=O)(=O)c2cn(C)cn2)CC1 (configuration not stated)	98	83	21	105							
		Cn1cnc(S(=O)(=O)N(Cc2ccccn2)C2Cc3cc(C#N)ccc3N(Cc3cncn3C)C2=O)c1 (configuration not stated)	8	5	0	5000							
		Cn1cnc(S(=O)(=O)N(CC(=O)c2ccsc2)C2Cc3cc(C#N)ccc3N(Cc3cncn3C)C2=O)c1 (configuration not stated)	98	79	26								
		Cn1cnc(S(=O)(=O)N(CC(=O)NC(C)(C)C)C2Cc3cc(Br)ccc3N(Cc3cncn3C)C2=O)c1 (configuration not stated)	98	81	24	105							
		Cn1cnc(S(=O)(=O)N(Cc2ccccc2)C2Cc3cc(C#N)ccc3N(Cc3cncn3C)C2=O)c1 (configuration not stated)	98	88	45	175	61	5	0	0	100		
		Cn1cnc(S(=O)(=O)N(Cc2ccc(S(C)(=O)=O)cc2)C2Cc3cc(Br)ccc3N(Cc3cncn3C)C2=O)c1 (configuration not stated)	86	26	0	850	56	0	0	0			
		Cn1cnc(S(=O)(=O)N(Cc2ccc(F)cc2F)C2Cc3cc(C#N)ccc3N(Cc3cncn3C)C2=O)c1 (configuration not stated)	80	27	4								
		Cn1cnc(S(=O)(=O)NC2Cc3cc(Br)ccc3N(Cc3cncn3C)C2=O)c1 (configuration not stated)	60	15	5	5000					3000		
		Cn1cnc(S(=O)(=O)N(Cc2ccc(C(F)(F)F)o2)C2Cc3cc(C#N)ccc3N(Cc3cncn3C)C2=O)c1 (configuration not stated)	92	67	1	625					325		

Structure (SMILES)	half-life [1] [min]	t1/2 (Liver) [min]	inhibition (Plasmodium falciparum [2]) [%]	inhibition (Plasmodium falciparum [3]) [%]	inhibition (Plasmodium falciparum [4]) [%]	EC50 (Plasmodium falciparum [5]) [nM]	inhibition (Rattus norvegicus [6]) [%]	inhibition (Rattus norvegicus [7]) [%]	inhibition (Rattus norvegicus [8]) [%]	inhibition (Rattus norvegicus [9]) [%]	EC50 (Plasmodium falciparum [10]) [nM]	IC50 [11] [nM]	EC50 (Plasmodium falciparum [12]) [nM]
Cn1cnc(S(=O)(=O)N(CC(=O)OC(C)(C)C)C2Cc3cc(C#N)ccc3N(Cc3cncn3C)C2=O)c1 (configuration not stated)	21		100	97	62	35	92	75	23	0	30		
Cn1cnc(S(=O)(=O)N(CC(=O)NC(C)(C)C)C2Cc3cc(C#N)ccc3N(Cc3cncn3C)C2=O)c1 (configuration not stated)	144		98	86	25	200	86	62	0	0	100		
Cn1cnc(S(=O)(=O)N(Cc2ccc(-n3cccn3)cc2)C2Cc3cc(C#N)ccc3N(Cc3cncn3C)C2=O)c1 (configuration not stated)	9		100	97	50	80	84	54	4	0	150		
Cn1cnc(S(=O)(=O)N(Cc2ccc(C#N)cc2)C2Cc3cc(C#N)ccc3N(Cc3cncn3C)C2=O)c1 (configuration not stated)	40		91	56	26	2100					2100		
